{"source": "patent US20050214328A1", "about": "“Methods of using and compositions comprising immunomodulatory compounds for the treatment and management of skin diseases or disorders” (priority 2004, published 2005)", "key": {"[1]": {"conditions": "cited from earlier work; for interconversion in acetone: acetone (and other anhydrous) solvent systems"}, "[2]": {"system": "TNF-α", "test": "Inhibition of TNF-α production following LPS-stimulation of human PBMC", "type": "cell-based", "conditions": "for IC50: human PBMC, LPS, read-out: IC50 for inhibiting production of TNF-α following LPS-stimulation of PBMC; for secretion of the pro-inflammatory cytokine TNF-α: in vitro", "excerpt": "(§1) The pharmacological properties of 3-(4-amino-1-oxo-1,3-dihydro-isoindol-2-yl)-piperidine-2,6-dione or 4-(amino)-2-(2,6-dioxo-(3-piperidyl))-isoindoline-1,3-dione, including activity comparisons with thalidomide, are characterized in in vitro studies. Studies examined the effects of 3-(4-amino-1-oxo-1,3-dihydro-isoindol-2-yl)-piperidine-2,6-dione, 4-(amino)-2-(2,6-dioxo-(3-piperidyl))-isoindoline-1,3-dione or thalidomide on the production of various cytokines.\n(§2) Inhibitions of TNF-α production following LPS-stimulation of human PBMC and human whole blood by an immunomodulatory compound such as 3-(4-amino-1-oxo-1,3-dihydro-isoindol-2-yl)-piperidine-2,6-dione, 4-(amino)-2-(2,6-dioxo-(3-piperidyl))-isoindoline-1,3-dione or thalidomide were investigated in vitro."}, "[3]": {"system": "cardiovascular and respiratory functions", "conditions": "dog, in vivo; for arterial blood pressure: 2 mg/kg", "protocol": "In addition, a safety pharmacology study of 3-(4-amino-1-oxo-1,3-dihydro-isoindol-2-yl)-piperidine-2,6-dione or 4-(amino)-2-(2,6-dioxo-(3-piperidyl))-isoindoline-1,3-dione was conducted in dogs. The effects of the compound on cardiovascular and respiratory functions were examined in anesthetized dogs. One group of Beagle dogs (2/sex/group) received three doses of vehicle only and the other received three ascending doses of 2, 10 and 20 mg/kg of the compound. […] The cardiovascular and respiratory changes induced by the compound were minimal at all doses when compared to the vehicle control group."}, "[4]": {"system": "IFN-γ", "test": "IFN-γ production following TCR activation of T-cells", "type": "cell-based", "conditions": "in vitro", "excerpt": "as §1"}, "[5]": {"system": "TNF-α mRNA", "test": "Degradation of TNF-α mRNA", "type": "cell-based", "conditions": "in vitro", "excerpt": "as §1"}, "[6]": {"system": "acne", "test": "Clinical study in acne", "type": "in vivo, human", "conditions": "oral about 5 mg daily, continuous", "protocol": "(§3) 3-(4-Amino-1-oxo-1,3-dihydro-isoindol-2-yl)-piperidine-2,6-dione or 4-(amino)-2-(2,6-dioxo-(3-piperidyl))-isoindoline-1,3-dione is administered in an amount of from about 1 to about 25 mg per day to treat acne. Patients receive continuous treatment with the compound at a oral dose of about 5 mg daily."}, "[7]": {"system": "T-cells", "test": "Proliferation of T-cells following primary induction by T-cell receptor (TCR) activation", "type": "cell-based", "conditions": "in vitro", "excerpt": "as §1"}, "[8]": {"system": "IL6", "test": "LPS-stimulated production of IL6 by PBMC", "type": "cell-based", "conditions": "for secretion of the pro-inflammatory cytokine IL6: in vitro", "excerpt": "as §1"}, "[9]": {"system": "IL1β", "test": "LPS-stimulated production of IL1β by PBMC", "type": "cell-based", "conditions": "for secretion of the pro-inflammatory cytokine IL1β: in vitro", "excerpt": "as §1"}, "[10]": {"system": "TNF-α", "test": "Inhibition of TNF-α production following LPS-stimulation of human whole blood", "type": "cell-based", "conditions": "read-out: IC50 for inhibiting production of TNF-α following LPS-stimulation of human whole blood", "excerpt": "as §2"}, "[11]": {"system": "IL2", "test": "IL2 production following TCR activation of PBMC", "type": "cell-based", "conditions": "in vitro", "excerpt": "as §1"}, "[12]": {"system": "IL10", "test": "Production of anti-inflammatory cytokine IL10 by PBMC", "type": "cell-based", "conditions": "for production of the anti-inflammatory cytokine IL10: PBMC; for secretion of the anti-inflammatory cytokine IL10: in vitro", "excerpt": "as §1"}, "[13]": {"system": "actinic or senile keratoses", "test": "Clinical study in patients with actinic or senile keratoses", "type": "in vivo, human", "conditions": "oral 25 mg daily, continuous, baseline vs after eight weeks, FIG. 1", "protocol": "as §3, with “patients with keratoses for eight weeks, and the responses are subsequently assessed. For example, clinical studies are performed for 3-(4-amino-1-oxo-1,3-dihydro-isoindol-2-yl)-piperidine-2,6-dione in patients with actinic or senile keratoses.” for “treat acne.”, “25” for “about 5”"}, "[14]": {"system": "wrinkles", "test": "Clinical study in patients with wrinkles", "type": "in vivo, human", "conditions": "oral about 5 mg daily, continuous", "protocol": "as §3, with “reduce or correct wrinkles of patients. For example, clinical studies are performed for 3-(4-amino-1-oxo-1,3-dihydro-isoindol-2-yl)-piperidine-2,6-dione in patients with wrinkles.” for “treat acne.”"}}, "note": "Where “and” joins values, the source holds several entries; their conditions need not be identical. Equal values may be shown once.", "data": [{"smiles": "Nc1cccc2c1CN(C1CCC(=O)NC1=O)C2=O", "note": "(stereo not shown) [Form B, 3-(4-amino-1-oxo-1,3 dihydro-isoindol-2-yl)-piperidene-2,6-dione]", "values": [{"measurement": "form conversion upon heating", "setting": "[1]; 175° C. for about five minutes", "value": "convert to Form F"}, {"measurement": "interconversion in acetone", "setting": "[1]", "value": "converts to other forms"}, {"measurement": "form stability / interconversion in aqueous solvent systems", "setting": "[1]; aqueous solvent systems", "value": "converts to Form E"}]}, {"smiles": "O=C1CCC(N2C(=O)c3ccccc3C2=O)C(=O)N1", "note": "(stereo not shown) [Thalidomide, thalidomide, reference compound]", "values": [{"measurement": "IC50", "setting": "[2]", "value": 50.1, "unit": "µg/mL"}]}, {"smiles": "Nc1cccc2c1CN(C1CCC(=O)NC1=O)C2=O", "note": "(stereo not shown) [Form E, 3-(4-amino-1-oxo-1,3 dihydro-isoindol-2-yl)-piperidene-2,6-dione]", "values": [{"measurement": "interconversion in THF", "setting": "[1]; THF solvent system", "value": "Form G"}, {"measurement": "form conversion upon heating (desolvation)", "setting": "[1]; about 125° C. for about five minutes", "value": "convert to Form B"}, {"measurement": "interconversion in acetone", "setting": "[1]", "value": "convert to Form C"}]}, {"smiles": "Nc1cccc2c1C(=O)N(C1CCC(=O)NC1=O)C2=O", "note": "(stereo not shown) [4-(amino)-2-(2,6-dioxo(3-piperidyl))-isoindoline-1,3-dione]", "values": [{"measurement": "deviations in femoral blood flow, respiratory parameters and QTc interval", "setting": "[3]", "value": "not considered treatment-related"}, {"measurement": "arterial blood pressure", "setting": "[3]", "value": "small transient increase"}, {"measurement": "IFN-γ production", "setting": "[4]", "value": "induced"}, {"measurement": "degradation of TNF-α mRNA", "setting": "[5]", "value": "enhanced"}, {"measurement": "acne (size and number of visible cutaneous infections and/or pimples)", "setting": "[6]", "value": "significant improvements"}, {"measurement": "T-cell proliferation", "setting": "[7]", "value": "induced"}, {"measurement": "LPS-stimulated production of IL6 by PBMC", "setting": "[8]", "value": "dose-dependent inhibition"}, {"measurement": "secretion of the pro-inflammatory cytokine IL6", "setting": "[8]", "value": "markedly inhibited"}, {"measurement": "LPS-stimulated production of IL1β by PBMC", "setting": "[9]", "value": "dose-dependent inhibition"}, {"measurement": "secretion of the pro-inflammatory cytokine IL1β", "setting": "[9]", "value": "markedly inhibited"}, {"measurement": "IC50", "setting": "[10]", "value": "~25 nM and 0.00683 µg/mL"}, {"measurement": "LPS-stimulated production of TNF-α by PBMC", "setting": "[2]", "value": "dose-dependent inhibition"}, {"measurement": "IC50", "setting": "[2]", "value": "~24 nM and 0.00655 µg/mL"}, {"measurement": "secretion of the pro-inflammatory cytokine TNF-α", "setting": "[2]", "value": "markedly inhibited"}, {"measurement": "IL2 production", "setting": "[11]", "value": "induced"}, {"measurement": "production of the anti-inflammatory cytokine IL10", "setting": "[12]", "value": "increased"}, {"measurement": "secretion of the anti-inflammatory cytokine IL10", "setting": "[12]", "value": "increased"}]}, {"smiles": "Nc1cccc2c1CN(C1CCC(=O)NC1=O)C2=O", "note": "(stereo not shown) [Form D, 3-(4-amino-1-oxo-1,3 dihydro-isoindol-2-yl)-piperidene-2,6-dione]", "values": [{"measurement": "form conversion at higher relative humidities", "setting": "[1]", "value": "convert to Form B"}]}, {"smiles": "Nc1cccc2c1CN(C1CCC(=O)NC1=O)C2=O", "note": "(stereo not shown) [3-(4-amino-1-oxo-1,3-dihydro-isoindol-2-yl)-piperidine-2,6-dione]", "values": [{"measurement": "deviations in femoral blood flow, respiratory parameters and QTc interval", "setting": "[3]", "value": "not considered treatment-related"}, {"measurement": "arterial blood pressure", "setting": "[3]", "value": "small transient increase"}, {"measurement": "IFN-γ production", "setting": "[4]", "value": "induced"}, {"measurement": "degradation of TNF-α mRNA", "setting": "[5]", "value": "enhanced"}, {"measurement": "acne (size and number of visible cutaneous infections and/or pimples)", "setting": "[6]", "value": "significant improvements"}, {"measurement": "clinical response in patients with actinic or senile keratoses", "setting": "[13]", "value": "remarkable clinical benefit"}, {"measurement": "clinical response in patients with wrinkles", "setting": "[14]", "value": "remarkable clinical benefit"}, {"measurement": "T-cell proliferation", "setting": "[7]", "value": "induced"}, {"measurement": "LPS-stimulated production of IL6 by PBMC", "setting": "[8]", "value": "dose-dependent inhibition"}, {"measurement": "secretion of the pro-inflammatory cytokine IL6", "setting": "[8]", "value": "markedly inhibited"}, {"measurement": "LPS-stimulated production of IL1β by PBMC", "setting": "[9]", "value": "dose-dependent inhibition"}, {"measurement": "secretion of the pro-inflammatory cytokine IL1β", "setting": "[9]", "value": "markedly inhibited"}, {"measurement": "IC50", "setting": "[10]", "value": "~480 nM and 0.104 µg/mL"}, {"measurement": "LPS-stimulated production of TNF-α by PBMC", "setting": "[2]", "value": "dose-dependent inhibition"}, {"measurement": "IC50", "setting": "[2]", "value": "~100 nM and 0.0259 µg/mL"}, {"measurement": "secretion of the pro-inflammatory cytokine TNF-α", "setting": "[2]", "value": "markedly inhibited"}, {"measurement": "IL2 production", "setting": "[11]", "value": "induced"}, {"measurement": "production of the anti-inflammatory cytokine IL10", "setting": "[12]", "value": "increased"}, {"measurement": "secretion of the anti-inflammatory cytokine IL10", "setting": "[12]", "value": "increased"}]}, {"smiles": "Nc1cccc2c1CN(C1CCC(=O)NC1=O)C2=O", "note": "(stereo not shown) [Form C, 3-(4-amino-1-oxo-1,3 dihydro-isoindol-2-yl)-piperidene-2,6-dione]", "values": [{"measurement": "hygroscopicity", "setting": "[1]; below about 85% RH", "value": "not hygroscopic"}, {"measurement": "form conversion at higher relative humidities", "setting": "[1]", "value": "can convert to Form B"}]}]}
